Assay results reported in patent publication US11389447B2 (Janssen Sciences Ireland Unlimited Company, priority 2006, dated 2022).
Read-outs that look alike come from different tables or passages of the source.

Legend:
[1] = system: wild type HIV; details: cited from earlier work
[2] = Kinetic study: plasma kinetics of TMC278 after single IM or SC injection of a nanosuspension; format: in vivo, male beagle dogs; details: 5 mg/kg; for AUC(0-t) / Cmax / Tmax / concentration at 0 h / concentration at 1 h / concentration at 3 h / concentration at 8 h / concentration at 24 h / concentration at 48 h / concentration at 72 h / concentration at 144 h / concentration at 192 h / concentration at 240 h / concentration at 312 h / concentration at 384 h / concentration at 480 h / concentration at 648 h / concentration at 696 h / concentration at 864 h / concentration at 1032 h / concentration at 1200 h / concentration at 1368 h / concentration at 1536 h / concentration at 1704 h / concentration at 1872 h / concentration at 2040 h / concentration at 2208 h: male, beagle, dog, plasma; for AUC(0-t) / Cmax / Tmax: im, single IM 5 mg/kg TMC278 nanosuspension; for Cmax: read-out: Cmax; for Tmax: read-out: Tmax; for concentration at 0 h / concentration at 1 h / concentration at 3 h / concentration at 8 h / concentration at 24 h / concentration at 48 h / concentration at 72 h / concentration at 144 h / concentration at 192 h / concentration at 240 h / concentration at 312 h / concentration at 384 h / concentration at 480 h / concentration at 648 h / concentration at 696 h / concentration at 864 h / concentration at 1032 h / concentration at 1200 h / concentration at 1368 h / concentration at 1536 h / concentration at 1704 h / concentration at 1872 h / concentration at 2040 h / concentration at 2208 h: intramuscular, plasma concentration of TMC278, single IM 5 mg/kg TMC278 nanosuspension;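 on all read-outs here: healthy male beagle dogs injected in both biceps femoris muscles (IM) or both thoracal sides (SC), total volume 0.2 mL/kg, drug measured in plasma from blood samples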
Method: Six healthy male beagle dogs with body weights ranging from 8 to 16 kg at the start of the study, were used. Each dog was identified by an ear tattoo number. Two dogs were dosed intramuscularly (IM) in the left and right m. biceps femoris (treatment group A). […] Two dogs were dosed subcutaneously (SC) in the left and right thoracal region. The injection volume was 2×0.1 ml/kg in all treatment groups. A 20 G needle was used.
Blood samples of 3 ml were taken from the left jugular vein from all dogs on day 0 at 0 h (predose), 20 min, 1 h, 3 h, 8 h and 24 h post-dose and further on days 2, 3, 6, 8, 10, 13, 16, 20, 23, 27, 29, 36, 43, 50, 57, 64, 71, 78, 85 and 92 at approximately 8 AM. Blood samples were placed on EDTA, EDTA Vacuette Greiner, Cat. No. 454086, Greiner Labortechnik N.V.). Within 2 h of blood sampling, samples were centrifuged at room temperature at about 1900×g for 10 minutes to allow plasma separation. Plasma was immediately transferred into a second tube and stored in the freezer within 2 hours after the start of centrifugation.

Cc1cc(C=CC#N)cc(C)c1Nc1ccnc(Nc2ccc(C#N)cc2)n1 [TMC278, 4-[[4-[[4-(2-cyanoethenyl)-2,6-dimethylphenyl]amino]-2-pyrimidinyl]amino]benzonitrile]
activity against wild type HIV (in words) [1]: pronounced activity | blood plasma levels after injection (in words) ([2]; injectable formulation of nanonised substance, male beagle dogs): stable blood plasma levels during a prolonged period of time | AUC(0-t) ([2]; dog 17264, read-out: AUC0-312 h): 27400 ng·h/mL | AUC(0-t) ([2]; dog 17264, read-out: AUC0-696 h): 34800 ng·h/mL | AUC(0-t) ([2]; dog 17264, read-out: AUC0-2208 h): 40500 ng·h/mL | Cmax ([2]; dog 17264): 159 ng/mL | Tmax ([2]; dog 17264): 48 h | AUC(0-t) ([2]; dog 18186, read-out: AUC0-312 h): 26600 ng·h/mL | AUC(0-t) ([2]; dog 18186, read-out: AUC0-696 h): 33000 ng·h/mL | AUC(0-t) ([2]; dog 18186, read-out: AUC0-2208 h): 38200 ng·h/mL | Cmax ([2]; dog 18186): 186 ng/mL | AUC(0-t) ([2]; mean of 2 dogs, read-out: AUC0-312 h): 27000 ng·h/mL | AUC(0-t) ([2]; mean of 2 dogs, read-out: AUC0-696 h): 33900 ng·h/mL | AUC(0-t) ([2]; mean of 2 dogs, read-out: AUC0-2208 h): 39400 ng·h/mL | Cmax ([2]; mean of 2 dogs): 173 ng/mL | Tmax ([2]; mean of 2 dogs): 24 h | concentration at 0 h ([2]; dog 17264, 0 h (d0, predose)): < 1 ng/mL | concentration at 1 h ([2]; dog 17264, 1 h): 110 ng/mL | concentration at 3 h ([2]; dog 17264, 3 h): 131 ng/mL | concentration at 8 h ([2]; dog 17264, 8 h): 130 ng/mL | concentration at 24 h ([2]; dog 17264, 24 h (d1)): 150 ng/mL | concentration at 48 h ([2]; dog 17264, 48 h (d2)): 159 ng/mL | concentration at 72 h ([2]; dog 17264, 72 h (d3)): 115 ng/mL | concentration at 144 h ([2]; dog 17264, 144 h (d6)): 86.2 ng/mL | concentration at 192 h ([2]; dog 17264, 192 h (d8)): 72.4 ng/mL | concentration at 240 h ([2]; dog 17264, 240 h (d10)): 56.7 ng/mL | concentration at 312 h ([2]; dog 17264, 312 h (d13)): 33.4 ng/mL | concentration at 384 h ([2]; dog 17264, 384 h (d16)): 23.9 ng/mL | concentration at 480 h ([2]; dog 17264, 480 h (d20)): 20.5 ng/mL | concentration at 648 h ([2]; dog 17264, 648 h (d27)): 11.4 ng/mL | concentration at 696 h ([2]; dog 17264, 696 h (d29)): 11.3 ng/mL | concentration at 864 h ([2]; dog 17264, 864 h (d36)): 7.33 ng/mL | concentration at 1032 h ([2]; dog 17264, 1032 h (d43)): 5.19 ng/mL | concentration at 1200 h ([2]; dog 17264, 1200 h (d50)): 3.4 ng/mL | concentration at 1368 h ([2]; dog 17264, 1368 h (d57)): 3 ng/mL | concentration at 1536 h ([2]; dog 17264, 1536 h (d64)): 2.84 ng/mL | concentration at 1704 h ([2]; dog 17264, 1704 h (d71)): 2.48 ng/mL | concentration at 1872 h ([2]; dog 17264, 1872 h (d78)): 1.79 ng/mL | concentration at 2040 h ([2]; dog 17264, 2040 h (d85)): 1.99 ng/mL | concentration at 2208 h ([2]; dog 17264, 2208 h (d92)): 1.56 ng/mL | concentration at 0 h ([2]; dog 18186, 0 h (d0, predose)): < 1 ng/mL | concentration at 1 h ([2]; dog 18186, 1 h): 82.6 ng/mL | concentration at 3 h ([2]; dog 18186, 3 h): 145 ng/mL | concentration at 8 h ([2]; dog 18186, 8 h): 136 ng/mL | concentration at 24 h ([2]; dog 18186, 24 h (d1)): 120 ng/mL | concentration at 48 h ([2]; dog 18186, 48 h (d2)): 132 ng/mL | concentration at 72 h ([2]; dog 18186, 72 h (d3)): 99.6 ng/mL | concentration at 144 h ([2]; dog 18186, 144 h (d6)): 91.9 ng/mL | concentration at 192 h ([2]; dog 18186, 192 h (d8)): 75.5 ng/mL | concentration at 240 h ([2]; dog 18186, 240 h (d10)): 62.5 ng/mL | concentration at 312 h ([2]; dog 18186, 312 h (d13)): 38 ng/mL | concentration at 384 h ([2]; dog 18186, 384 h (d16)): 20.6 ng/mL | concentration at 480 h ([2]; dog 18186, 480 h (d20)): 16.6 ng/mL | concentration at 648 h ([2]; dog 18186, 648 h (d27)): 9.08 ng/mL | concentration at 696 h ([2]; dog 18186, 696 h (d29)): 11.2 ng/mL | concentration at 864 h ([2]; dog 18186, 864 h (d36)): 6.44 ng/mL | concentration at 1032 h ([2]; dog 18186, 1032 h (d43)): 5.18 ng/mL | concentration at 1200 h ([2]; dog 18186, 1200 h (d50)): 3.25 ng/mL | concentration at 1368 h ([2]; dog 18186, 1368 h (d57)): 3 ng/mL | concentration at 1536 h ([2]; dog 18186, 1536 h (d64)): 2.44 ng/mL | concentration at 1704 h ([2]; dog 18186, 1704 h (d71)): 1.84 ng/mL | concentration at 1872 h ([2]; dog 18186, 1872 h (d78)): 1.45 ng/mL | concentration at 2040 h ([2]; dog 18186, 2040 h (d85)): 1.61 ng/mL | concentration at 2208 h ([2]; dog 18186, 2208 h (d92)): 1.25 ng/mL | concentration at 0 h ([2]; mean of 2 dogs, 0 h (d0, predose)): < 1 ng/mL | concentration at 1 h ([2]; mean of 2 dogs, 1 h): 96.3 ng/mL | concentration at 3 h ([2]; mean of 2 dogs, 3 h): 138 ng/mL | concentration at 8 h ([2]; mean of 2 dogs, 8 h): 133 ng/mL | concentration at 24 h ([2]; mean of 2 dogs, 24 h (d1)): 135 ng/mL | concentration at 48 h ([2]; mean of 2 dogs, 48 h (d2)): 146 ng/mL | concentration at 72 h ([2]; mean of 2 dogs, 72 h (d3)): 107 ng/mL | concentration at 144 h ([2]; mean of 2 dogs, 144 h (d6)): 89.1 ng/mL | concentration at 192 h ([2]; mean of 2 dogs, 192 h (d8)): 74 ng/mL | concentration at 240 h ([2]; mean of 2 dogs, 240 h (d10)): 59.6 ng/mL | concentration at 312 h ([2]; mean of 2 dogs, 312 h (d13)): 35.7 ng/mL | concentration at 384 h ([2]; mean of 2 dogs, 384 h (d16)): 22.3 ng/mL | concentration at 480 h ([2]; mean of 2 dogs, 480 h (d20)): 18.6 ng/mL | concentration at 648 h ([2]; mean of 2 dogs, 648 h (d27)): 10.2 ng/mL | concentration at 696 h ([2]; mean of 2 dogs, 696 h (d29)): 11.3 ng/mL | concentration at 864 h ([2]; mean of 2 dogs, 864 h (d36)): 6.89 ng/mL | concentration at 1032 h ([2]; mean of 2 dogs, 1032 h (d43)): 5.19 ng/mL | concentration at 1200 h ([2]; mean of 2 dogs, 1200 h (d50)): 3.33 ng/mL | concentration at 1368 h ([2]; mean of 2 dogs, 1368 h (d57)): 3 ng/mL | concentration at 1536 h ([2]; mean of 2 dogs, 1536 h (d64)): 2.64 ng/mL | concentration at 1704 h ([2]; mean of 2 dogs, 1704 h (d71)): 2.16 ng/mL | concentration at 1872 h ([2]; mean of 2 dogs, 1872 h (d78)): 1.62 ng/mL | concentration at 2040 h ([2]; mean of 2 dogs, 2040 h (d85)): 1.8 ng/mL
